Data on one compound can be found in patent US20240115744A1, “FIBRIN-BINDING COMPOUNDS FOR IMAGING AND TREATMENT” (Collagen Medical, LLC, priority 2019, published 2024).

“Also recorded” adds a separate entry of the source. *1 amine or outer side, *2 acyl side, *3 side chain or, on linkers, in order; H or OH if unused. Where a SMILES comes first, the peptide text is derived from it. Bridges are numbered along the chain shown (N, C = ends). [ ]: non-standard residue; d: D form. The star is where a group is joined. NODAGA = O=C(O)CN1CCN(CC(=O)O)CCN(C(CCC(=O)*)C(=O)O)CC1; Tyr(3-Cl) = N[C@@H](Cc1ccc(O)c(Cl)c1)C(=O)O; X1 = O=C([C@@H]1CC(O)CN1[*:1])[*:2]

Data set [1] concerns fibrin in human carotid endarterectomy specimens. The data set can be described thus: Ex vivo functional probe assay of human carotid endarterectomy specimens. Particulars: compared to non-binding probe ^68Ga-22; 12 patients; P<0.05. How it is done: (§1) Twelve discarded surgical specimens from asymptomatic patients who underwent elective carotid endarterectomy at Massachusetts General Hospital were obtained and used in ex vivo studies described herein. Samples were processed for histology, autoradiography, and probe binding assay as described above (Examples 6 and 13).
(§2) Discarded surgical specimens were embedded in optimal cutting temperature compound, snap-frozen, and stored at −80° C. before further analysis. Alternating consecutive cryosections were processed for histology and autoradiography; triplicate tissue samples with 50 μm gap in between were used for these experiments. The remaining tissue samples were processed for functional probe assay.
For functional probe assay, samples were thawed at room temperature, weighed (8-15 mg per sample), cut into duplicates, and placed into tubes containing 111-148 kBq (3-4 μCi)^68Ga-20 or the non-fibrin binding control probe ^68Ga-22 in 1 mL PBS. The mixture was shaken for 45 minutes at room temperature. After centrifugation, supernatant (sup-1) was removed, kept for further analysis, and tissue samples were washed with PBS (1 mL); this procedure was repeated twice for each sample. Wash solutions (wash-1 and wash-2) were kept for further analysis. Activities in tissue samples and solutions sol-1, wash-1, and wash-2 were measured on a gamma counter. Percent uptake was calculated as follows: […]

A short description of data set [2]: Blood analysis in rat model of carotid artery crush injury (blood clearance). Particulars: relative to the other compounds compared. Type of data set: in vivo. How it is done:
Rat carotid endothelial injury model in vivo studies were conducted, wherein the common carotid artery is isolated and crushed briefly with a hemostat, resulting in mural thrombus formation at the site of the crush. The vessel wall fibrin is then imaged with our PET compounds. All six compounds were evaluated in this model.
Adult male Wistar rats were anesthetized by isoflurane (1-2% in medical air). Body temperature was maintained at 37° C. using a thermo-regulated heating pad. The right femoral vein and artery were cannulated for compound injection and blood sampling, respectively. Endothelial injury was induced by crush injury to the right common carotid artery (1-2 cm proximal to the carotid bifurcation) by clamping the vessel with a hemostat for 5 minutes. Immediately following the surgical procedures, rats were placed in a micro-PET/CT scanner. Compound (200-600 μL) was injected, PET-CT images were acquired, and blood samples were drawn from the femoral artery prior to compound injection and at 2, 5, 10, 15, 30, 60, 90, 120 min post injection. Tissues were harvested at the end for ex vivo analyses.
Blood samples were drawn from prior to probe injection and at 2, 5, 10, 15, 30, 60, 90, 120 min post injection. Each blood sample was weighed and counted using a gamma-counter. The activity in each sample was calculated as percent injected dose (% ID) per gram of tissue.

Data set [3] deals with T1, fibrin in human carotid endarterectomy specimens (Homo sapiens, UniProt P02671+P02675+P02679).
T1 construct: discarded surgical specimens from asymptomatic patients who underwent elective carotid endarterectomy; from tissue; host or cells: human carotid endarterectomy specimens (cryosections or tissue pieces)
T1 sequence (P02671 36-644 isoform P02671-2 limits assumed): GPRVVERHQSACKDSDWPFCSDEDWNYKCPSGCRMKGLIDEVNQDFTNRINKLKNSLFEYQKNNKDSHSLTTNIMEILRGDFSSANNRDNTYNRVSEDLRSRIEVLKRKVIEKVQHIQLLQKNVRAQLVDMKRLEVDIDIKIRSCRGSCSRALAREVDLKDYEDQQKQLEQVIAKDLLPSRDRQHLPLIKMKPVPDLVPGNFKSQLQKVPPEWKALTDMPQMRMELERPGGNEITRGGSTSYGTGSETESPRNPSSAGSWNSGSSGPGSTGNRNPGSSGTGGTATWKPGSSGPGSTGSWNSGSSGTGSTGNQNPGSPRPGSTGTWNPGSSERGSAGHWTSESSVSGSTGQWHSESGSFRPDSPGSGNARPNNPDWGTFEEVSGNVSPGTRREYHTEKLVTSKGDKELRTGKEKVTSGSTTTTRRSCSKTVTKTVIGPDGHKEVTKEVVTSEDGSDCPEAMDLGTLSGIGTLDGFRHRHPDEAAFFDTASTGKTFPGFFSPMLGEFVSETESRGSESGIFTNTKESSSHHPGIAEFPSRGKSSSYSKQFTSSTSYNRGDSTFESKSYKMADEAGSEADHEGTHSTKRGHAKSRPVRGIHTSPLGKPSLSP
T1 sequence (P02675 45-491 limits assumed): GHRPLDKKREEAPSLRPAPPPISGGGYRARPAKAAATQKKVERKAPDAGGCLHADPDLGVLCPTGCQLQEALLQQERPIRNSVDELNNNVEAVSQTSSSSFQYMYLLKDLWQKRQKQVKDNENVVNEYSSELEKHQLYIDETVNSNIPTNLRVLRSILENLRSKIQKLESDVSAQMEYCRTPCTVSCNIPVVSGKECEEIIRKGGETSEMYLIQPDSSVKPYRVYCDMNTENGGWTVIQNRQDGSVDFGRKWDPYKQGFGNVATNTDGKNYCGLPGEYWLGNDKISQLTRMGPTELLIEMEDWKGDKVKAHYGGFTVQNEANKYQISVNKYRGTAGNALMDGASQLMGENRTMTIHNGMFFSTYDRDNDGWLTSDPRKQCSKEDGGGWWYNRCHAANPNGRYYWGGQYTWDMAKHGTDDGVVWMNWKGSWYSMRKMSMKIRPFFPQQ
T1 sequence (P02679 27-437 isoform P02679-2 limits assumed): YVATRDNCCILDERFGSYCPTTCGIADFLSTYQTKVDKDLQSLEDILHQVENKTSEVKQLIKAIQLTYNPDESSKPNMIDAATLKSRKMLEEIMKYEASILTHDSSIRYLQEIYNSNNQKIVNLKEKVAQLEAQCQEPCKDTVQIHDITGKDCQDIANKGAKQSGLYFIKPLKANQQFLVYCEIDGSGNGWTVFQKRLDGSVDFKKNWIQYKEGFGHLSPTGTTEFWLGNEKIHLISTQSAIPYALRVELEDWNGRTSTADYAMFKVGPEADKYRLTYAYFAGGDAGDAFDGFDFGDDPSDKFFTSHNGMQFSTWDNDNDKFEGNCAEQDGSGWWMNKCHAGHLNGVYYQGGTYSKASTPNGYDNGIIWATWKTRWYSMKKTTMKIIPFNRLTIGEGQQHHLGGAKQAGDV
Kind of data set: Ex vivo autoradiography of human carotid endarterectomy specimens. Particulars: compared to non-binding probe ^68Ga-22; 12 patients; P<0.05. How it is done: as §1, §2
For autoradiography, three 30 μm-thick sections were incubated with ^68Ga-20 or non-fibrin binding control probe ^68Ga-22 for 45 minutes on a lab shaker at room temperature. Autoradiography was performed after three washes of PBS. The exposure time was 2 minutes.

On to `CC[C@H](C)[C@H](NC(=O)[C@H](Cc1cnc[nH]1)NC(=O)[C@@H]1CSSC[C@H](NC(=O)[C@@H](CCC(=O)O)NC(=O)[C@H](Cc2ccc(O)cc2)NC(=O)CCC(C(=O)O)N2CCN(CC(=O)O)CCN(CC(=O)O)CC2)C(=O)N2CC(O)C[C@H]2C(=O)N[C@@H](Cc2ccc(O)c(Cl)c2)C(=O)NCC(=O)N[C@@H](CC(C)C)C(=O)N1)C(=O)N[C@H](CCC(N)=O)C(N)=O` (stereo partly shown) [Compound ^68Ga-20, metal not drawn] ({NODAGA}-Y[dE]C[X1][Tyr(3-Cl)]GLCHI[dQ]-NH2; disulfide 3-8), for which the “uptake, functional probe assay” value in data set [1] is given as “variable but significantly increased; also recorded: significantly higher uptake”. For the same compound, the blood clearance entry in data set [2] (rat carotid artery crush injury, 2-120 min post injection) is on record as “faster blood clearance”. For the same compound, in data set [2] (rat), the metabolic stability result is reported as “better metabolic stability”. In addition, the “uptake, autoradiography” value in data set [3] is listed as “variable but significantly increased; also recorded: significantly higher uptake”.
